What was measured:
4T1 R4 cells = test: Cell viability assay, 4T1 R4 cells; type: cell-based, mouse; settings: with 400 nM paclitaxel, 72 hr
Description: MCF-7, MDA-MB-231, MDA-MB-468, Hs578T, 4T1, and HeLa cell lines stably expressing H2B-mCherry and eGFP-tubulin (kindly provided by Dr. Anthony A. Hyman, Max-Planck-Institute for Molecular Cell Biology and Genetics, Dresden, Germany) were cultured in high-glucose Dulbecco's Modified Eagle Medium (DMEM). SK-BR-3 cells were cultured in McCoy's Modified 5a Medium. Hs578T cells were cultured in high-glucose DMEM supplemented with an additional 0.01 mg/mL bovine insulin. […] All mentioned media were supplemented with 10% fetal bovine serum (Gibco) and 1% Penicillin/Streptomycin (Corning), and cells were incubated at 37° C. in a humidified atmosphere containing 5% CO2. HEK293 cells were cultured in HE300 medium (GMEP incorporated, Japan) and maintained in suspension culture with 125 rpm and 8% CO2.
The cancer cells were cultured in a 96-well plate at a confluence of 1000-2000 cells/well with indicated drugs for specific days. When the time was up, the culture medium in the plate was aspirated and replaced with a prepared CellTiter-Glo reagent/DMEM mixture (1:1 mix of CellTiter-Glo reagent and serum-supplemented DMEM). After incubation for 10 min, the luminescence (proportional to the number of living cells) was measured with an ELISA plate reader to determine the cell viability.

KIF2C and tubulin = biological target: T1, KIF2C and tubulin (Homo sapiens, UniProt Q99661); test: KIF2C-tubulin affinity pull-down assay; type: binding
T1 construct: KIF2C (216-598 a.a.); made in house; host or cells: E. coli BL21 (DE3), pET-28a (KIF2C); tubulin from porcine brain (Cytoskeleton) or HEK293 cells
Description: The mixture was subjected to KIF2C pull-down with 50 μL of pre-equilibrated Ni-NTA resin. Residual tubulin that remained interacting with KIF2C was resolved by SDS-PAGE followed by Coomassie brilliant blue staining or western blotting.

MDA-MB-231 cells = test: Cell validation: cytotoxicity in MDA-MB-231 cells (CellTiter-Glo); type: cell-based
In short: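 MDA-MB-231 cells were seeded at 2000 cells/well and exposed to compounds for the specified number of days. Medium was then replaced with a 1:1 CellTiter-Glo reagent/serum-supplemented DMEM mix for 10 min, and viability was read as luminescence, proportional to living cell number.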

T1 sequence (Q99661 216-598): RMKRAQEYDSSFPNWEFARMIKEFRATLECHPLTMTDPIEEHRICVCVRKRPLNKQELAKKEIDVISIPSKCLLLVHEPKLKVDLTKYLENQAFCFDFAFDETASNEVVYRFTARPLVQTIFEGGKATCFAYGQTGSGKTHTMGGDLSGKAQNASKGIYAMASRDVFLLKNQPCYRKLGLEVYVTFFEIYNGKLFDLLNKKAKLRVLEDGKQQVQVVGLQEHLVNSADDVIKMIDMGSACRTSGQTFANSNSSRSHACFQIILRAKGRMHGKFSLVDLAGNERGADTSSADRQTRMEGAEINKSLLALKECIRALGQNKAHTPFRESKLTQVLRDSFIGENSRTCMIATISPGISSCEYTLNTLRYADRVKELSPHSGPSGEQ

## CCN1CCN(C(=O)COc2ccc(/C=c3\sc4n(c3=O)C(c3ccc(Cl)cc3)C(C(=O)OC(C)C)=C(C)N=4)cc2)CC1.O=C(O)/C=C\C(=O)O (stereo not shown) [7S9 (133), isopropyl (Z)-5-(4-chlorophenyl)-2-(4-(2-(4-ethylpiperazin-1-yl)-2-oxoethoxy)benzylidene)-7-methyl-3-oxo-2,3-dihydro-5H-thiazolo[3,2-a]pyrimidine-6-carboxylate maleate]
4T1 R4 cells
  fold increase of cell sensitivity to 7S9 by paclitaxel: 10.5 fold
KIF2C and tubulin
  molecular interaction between KIF2C and tubulin (in words): increased by 7S9 in a dose-dependent manner
MDA-MB-231 cells; 72 hr
  cytotoxicity on MDA-MB-231 cells (in words): showed cytotoxicity
MDA-MB-231 cells; cytotoxicity in MDA-MB-231 cells
  Cell validation (IC50): + + +

— US20250129101A1, “Compound, Pharmaceutical Composition Comprising the Same and Method for Treating Cancer Using the Same” (NATIONAL TSING HUA UNIVERSITY, priority 2023, published 2025)
